Patent US7723373B2, “Indole-3-sulphur derivatives” (AstraZeneca AB, priority 2002, dated 2010)

Molecular target: T1, rhCRTh2 (Homo sapiens, UniProt Q9Y5Y4)
T1 construct: expressed in transfected cells; host or cells: HEK cells (membrane preparation)
T1 sequence (Q9Y5Y4 1-395): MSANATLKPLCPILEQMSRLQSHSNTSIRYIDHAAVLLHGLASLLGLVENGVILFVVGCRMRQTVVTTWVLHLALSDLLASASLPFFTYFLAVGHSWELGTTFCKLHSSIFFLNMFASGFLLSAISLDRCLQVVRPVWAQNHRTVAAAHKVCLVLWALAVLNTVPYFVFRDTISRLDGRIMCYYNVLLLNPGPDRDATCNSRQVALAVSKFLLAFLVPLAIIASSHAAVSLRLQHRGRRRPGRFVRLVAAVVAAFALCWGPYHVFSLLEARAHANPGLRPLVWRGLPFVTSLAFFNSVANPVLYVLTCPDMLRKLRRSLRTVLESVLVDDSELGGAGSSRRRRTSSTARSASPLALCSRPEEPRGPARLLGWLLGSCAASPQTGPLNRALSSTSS
Assay: Ligand binding assay ([3H]PGD2 SPA, HEK cell membranes)
Details: [3H]PGD2 binding to membranes of HEK cells expressing rhCRTh2/Gα16, SPA beads, 2 hours at room temperature
Method: [^3H]PGD2 was purchased from Perkin Elmer Life Sciences with a specific activity of 100-210 Ci/mmol. All other chemicals were of analytical grade.
HEK cells expressing rhCRTh2/Gα16 were routinely maintained in DMEM containing 10% Fetal Bovine Serum (HyClone), 1 mg/ml geneticin, 2 mM L-glutamine and 1% non-essential amino acids. For the preparation of membranes, the adherent transfected HEKcells were grown to confluence in two layer tissue culture factories (Fisher, catalogue number TKT-170-070E). Maximal levels of receptor expression were induced by addition of […] sodium butyrate for the last 18 hours of culture. The adherent cells were washed once with phosphate buffered saline (PBS, 50 ml per cell factory) and detached by the addition of 50 ml per cell factory of ice-cold membrane homogenisation buffer [20 mM HEPES (pH 7.4), 0.1 mM dithiothreitol, 1 mM EDTA, 0.1 mM phenyl methyl sulphonyl fluoride and 100 μg/ml bacitracin]. […] The final pellet was re-suspended in 4 ml of membrane homogenisation buffer per cell factory used and the protein content determined. […]
All assays were performed in Corning clear bottomed, white 96-well NBS plates (Fisher). […] (The optimum coating concentrations were determined for each batch of membranes) The beads were pelleted by centrifugation (800×g for 7 minutes at 4° C.), washed once with assay buffer (50 mM HEPES pH 7.4 containing 5 mM magnesium chloride) and finally re-suspended in assay buffer at a bead concentration of 10 mg/ml.
Each assay contained 20 μl of 6.25 nM [^3]PGD2, 20 μl membrane saturated SPA beads both in assay buffer and 10 μl of compound solution or 13,14-dihydro-15-keto prostaglandin D2 (DK-PGD2, for determination of non-specific binding Cayman chemical company). […] The assay plate was incubated at room temperature for 2 hours and counted on a Wallac Microbeta liquid scintillation counter (1 minute per well).

Row | Compound | pIC50 | IC50 [nM]
1 | 5-chloro-3-[(4-chlorophenyl)sulfonyl]-6-cyano-2-methyl-1H-indole-1-acetic acid [Example 6] | 7 | –
2 | Cc1c(S(=O)(=O)c2ccc(Cl)cc2)c2cc(Cl)ccc2n1CC(=O)O [Example 2, 5-chloro-3-[(4-chlorophenyl)sulfonyl]-2-methyl-1H-indole-1-acetic acid] | – | 7.94
3 | Cc1ccc2c(c1)c([S+]([O-])c1ccc(Cl)cc1)c(C)n2CC(=O)O (stereo not drawn) [Example 7, 3-[(4-chlorophenyl)sulfinyl]-2,5-dimethyl-1H-indole-1-acetic acid] | – | 251
